According to patent US9120749B2, “Quinoline derivatives and MELK inhibitors containing the same” (ONCOTHERAPY SCIENCE, INC., priority 2010, dated 2015):
Structures can show the parent of a compound that is named as a salt.

What was measured:
MELK = MELK (Homo sapiens, UniProt Q14680); experiment: Kinase assay: MELK activity, phosphorylation of FITC-labeled histone H3 peptide measured by IMAP fluorescence polarization; type: biochemical; conditions: MELK kinase assay, IMAP fluorescence polarization, 50 micro-M ATP; read-out: IC50 (μM) (kinase assay)
Outline: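 Fluorescence polarization was measured 0.5 h (room temperature) after quenching with threefold volume of progressive binding solution. Test compounds from 12.5 mM DMSO stocks were assayed at 1% DMSO.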

T47D cells = experiment: Cell-based assay: anti-proliferative activity, Cell Counting Kit-8, 72 hours (T47D); conditions: Homo sapiens, T47D, 72 h
Outline: (§1)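 Proliferation read with Cell Counting Kit-8 after 72 hours of inhibitor treatment, from seeding of 2,000–3,000 cells/well. Lines: T47D, A549, BT-549; HT-1197, lacking MELK by western blot, served as negative control. IC50 derived.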

A549 cells = experiment: Cell-based assay: anti-proliferative activity, Cell Counting Kit-8, 72 hours (A549); conditions: Homo sapiens, A549, 72 h, 72 hours
Outline: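 A549 cells were seeded in 96-well plates and exposed to candidate inhibitors for 72 hours. Cell growth was then measured with Cell Counting Kit-8, and IC50 values were calculated from the resulting growth data.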

HT-1197 cells = experiment: Cell-based assay: anti-proliferative activity, Cell Counting Kit-8, 72 hours (HT-1197, negative control without MELK expression); conditions: Homo sapiens, HT1197, 72 h, HT1197 cells (negative control), 72 hours
Outline: as §1

22Rv1 cells = experiment: Cell-based assay: anti-proliferative activity, Cell Counting Kit-8, 72 hours (22Rv1); conditions: Homo sapiens
DU4475 cells = experiment: Cell-based assay: anti-proliferative activity, Cell Counting Kit-8, 72 hours (DU4475); conditions: Homo sapiens, DU-4475

MELK, sequence (Q14680 whole entry, looked up): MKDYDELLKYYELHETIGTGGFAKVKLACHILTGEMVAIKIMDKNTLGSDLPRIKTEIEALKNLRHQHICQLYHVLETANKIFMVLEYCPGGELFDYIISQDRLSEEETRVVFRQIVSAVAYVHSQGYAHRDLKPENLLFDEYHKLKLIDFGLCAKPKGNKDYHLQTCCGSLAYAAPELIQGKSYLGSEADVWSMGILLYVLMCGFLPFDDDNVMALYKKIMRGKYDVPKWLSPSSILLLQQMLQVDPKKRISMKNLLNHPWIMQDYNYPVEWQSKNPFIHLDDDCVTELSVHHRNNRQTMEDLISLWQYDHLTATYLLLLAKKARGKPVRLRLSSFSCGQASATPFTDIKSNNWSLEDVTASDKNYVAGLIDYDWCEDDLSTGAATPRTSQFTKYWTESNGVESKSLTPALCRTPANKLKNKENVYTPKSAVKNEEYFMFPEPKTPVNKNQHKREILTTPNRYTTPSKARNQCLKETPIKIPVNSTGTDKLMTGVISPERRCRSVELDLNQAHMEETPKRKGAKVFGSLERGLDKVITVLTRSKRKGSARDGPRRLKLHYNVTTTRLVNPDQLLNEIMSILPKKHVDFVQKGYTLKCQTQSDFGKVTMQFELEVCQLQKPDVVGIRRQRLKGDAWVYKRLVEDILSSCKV

SMILES | IC50 (MELK) [µM] | IC50 (T47D cells) [µM] | IC50 (A549 cells) [µM] | IC50 (HT-1197 cells) [µM] | IC50 (22Rv1 cells) [µM] | IC50 (DU4475 cells) [µM]
CC(=O)c1cnc2ccc(-c3cc(Cl)c(O)c(Cl)c3)cc2c1N[C@H]1CC[C@H](NC(=O)C(N)C(C)C)CC1 (stereo partly drawn) [Example 915] | 0.0031 | 0.053 | 0.29 | 3.5 | 0.099 | 0.062
CC(=O)c1cnc2cc(C)c(-c3cc(Cl)c(O)c(Cl)c3)cc2c1Nc1ccc(N2CCN(C)CC2)nc1 [Example 866, 1-(6-(3,5-dichloro-4-hydroxyphenyl)-7-methyl-4-((6-(4-methylpiperazin-1-yl)pyridin-3-yl)amino)quinolin-3-yl)ethanone hydrochloride] | 0.34 | 2.4 | 2.3 | 4.5 | 4.1 | 2.9
CC(=O)c1cnc2ccc(-c3cc(F)c(O)c(Cl)c3)cc2c1N[C@H]1CC[C@H](NC(=O)CN(C)C)CC1 [Example 876] | 0.0088 | 0.033 | 0.16 | 1.5 | 0.14 | 0.092
[2H]C([2H])([2H])N(C[C@H]1CC[C@H](Nc2c(C(C)=O)cnc3ccc(-c4cc(Cl)c(O)c(Cl)c4)cc23)CC1)C([2H])([2H])[2H] [Example 864, 1-(6-(3,5-dichloro-4-hydroxyphenyl)-4-((trans-4-((dimethyl-d6-amino)methyl)cyclohexyl)amino)quinolin-3-yl)ethanone dihydrochloride] | 0.0011 | 0.067 | 0.11 | 1.3 | 0.081 | 0.043
CCN(CC)CCO[C@H]1CC[C@H](Nc2c(C(C)=O)cnc3ccc(-c4cc(F)c(O)c(Cl)c4)cc23)CC1 [Example 869, 1-(6-(3-chloro-5-fluoro-4-hydroxyphenyl)-4-((1R,4R)-4-(2-(diethylamino)ethoxy)cyclohexyl)amino)quinolin-3-yl)ethanone hydrochloride] | 0.01 | 0.084 | 0.23 | 0.7 | 0.32 | 0.26
CC(=O)c1cnc2ccc(-c3cc(Cl)c(O)c(Cl)c3)cc2c1N[C@H]1CC[C@H](C(=O)N2CCN(C)CC2)CC1 [Example 898, 1-(6-(3,5-dichloro-4-hydroxyphenyl)-4-((1R,4R)-4-(4-methylpiperazine-1-carbonyl)cyclohexyl)amino) quinolin-3-yl)ethanone hydrochloride] | 0.0044 | 0.44 | 0.87 | 3 | 0.78 | 0.96
CC(=O)c1cnc2ccc(-c3cc(Cl)c(O)c(Cl)c3)cc2c1N[C@H]1CC[C@H](C(=O)N(C)C)CC1 [Example 865, (1r,4r)-4-((3-acetyl-6-(3,5-dichloro-4-hydroxyphenyl)quinolin-4-yl)amino)-N,N-dimethylcyclohexanecarboxamide hydrochloride] | 0.0093 | 0.38 | 0.86 | 3.9 | 1.5 | 0.94
CC(=O)c1cnc2ccc(-c3cc(F)c(O)c(Cl)c3)cc2c1N[C@H]1CC[C@H](C(=O)NCCN(C)C)CC1 [Example 893, (1r,4r)-4-((3-acetyl-6-(3-chloro-5-fluoro-4-hydroxyphenyl)quinolin-4-yl)amino)-N-(2-(dimethylamino)ethyl) cyclohexanecarboxamide hydrochloride] | 0.0052 | 0.59 | 100 | 100 | 1.6 | 0.67
O=C(c1cnc2ccc(-c3cc(F)c(O)c(Cl)c3)cc2c1Nc1cncc(CCN2CCCC2)c1)C1CC1 [Example 882, (6-(3-chloro-5-fluoro-4-hydroxyphenyl)-4-((5-(2-(pyrrolidin-1-yl)ethyl)pyridin-3-yl)amino)quinolin-3-yl)(cyclopropyl)methanone] | 0.019 | 100 | 0.27 | 100 | 3.1 | 0.15
CC(=O)c1cnc2ccc(-c3cc(F)c(O)c(Cl)c3)cc2c1N[C@H]1CC[C@H](NC(=O)[C@@H]2CCCN2)CC1 [Example 921, (S)—N-((1R,4S)-4-(3-acetyl-6-(3-chloro-5-fluoro-4-hydroxyphenyl)quinolin-4-ylamino)cyclohexyl)pyrrolidine-2-carboxamide] | 0.012 | 0.048 | 1.2 | 10 | 0.21 | 0.068
